Measurements: ChEMBL document CHEMBL3259531, “Discovery of novel type II c-Met inhibitors based on BMS-777607” (Eur J Med Chem, 2014)
Each block holds one molecule with its values, some of them ahead of it. Active and inactive are the calls of the source. The calls are words filed in the database; no cut-off is given here.

Columns and labels:
[1] = tested on: BaF3; assay: Cytotoxicity against mouse BAF3 cells expressing TPR-Met assessed as growth inhibition at 10 uM after 72 hrs relative to control; format: functional; settings: BaF3, 72 h, read-out: GI
[2] = tested on: BaF3; assay: Cytotoxicity against mouse BAF3 cells expressing TPR-Met assessed as growth inhibition at 1 uM after 72 hrs; format: functional, cell-based
[3] = tested on: BaF3; assay: Cytotoxicity against mouse BAF3 cells expressing TPR-Met assessed as growth inhibition after 72 hrs; settings: BaF3, 72 h
[4] = Cytotoxicity against human MKN45 cells assessed as growth inhibition after 72 hrs; settings: MKN-45, 72 h
[5] = molecular target: T1, Hepatocyte growth factor receptor (Homo sapiens, UniProt P08581); assay: Inhibition of c-Met (unknown origin) using poly Glu:Tyr (4:1) as substrate at 10 uM after 60 mins by ELISA relative to control
[6] = molecular target: T1, Hepatocyte growth factor receptor; assay: Inhibition of c-Met (unknown origin)
[7] = molecular target: T1, Hepatocyte growth factor receptor; assay: Inhibition of c-Met (unknown origin) using poly Glu:Tyr (4:1) as substrate after 60 mins by ELISA
[8] = molecular target: T1, Hepatocyte growth factor receptor
[9] = molecular target: T1, Hepatocyte growth factor receptor; remark: listed apart in the source

SMILES: COc1cc2nccc(Oc3ccc(NC(=O)c4c(I)ccn(-c5ccc(F)cc5)c4=O)cc3F)c2cc1OC
- inhibition of growth at 10 µM [1]: > 80%
- growth inhibition (GI) [2]: Active

SMILES: O=C(Nc1ccc(Oc2ncnc3[nH]ccc23)c(F)c1)c1cccn(-c2ccc(F)cc2)c1=O
- inhibition of growth at 10 µM [1]: > 80%

SMILES: COc1cc2nccc(Oc3ccc(NC(=O)c4c(OC)ccn(-c5ccc(F)cc5)c4=O)cc3F)c2cc1OC
- inhibition of growth at 10 µM [1]: > 80%
- IC50 [3]: 36.3 nM
- IC50 [4]: 57.7 nM

SMILES: CCOc1ccn(-c2ccc(F)cc2)c(=O)c1C(=O)Nc1ccc(Oc2ccnc3cc(OC)c(OC)cc23)c(F)c1
- inhibition of growth at 10 µM [1]: > 80%
- IC50 [3]: 19.5 nM
- IC50 [4]: 39.7 nM

SMILES: Nc1nccc(Oc2ccc(NC(=O)c3cccn(-c4ccc(F)cc4)c3=O)cc2F)n1
- IC50 [8]: 39 nM

SMILES: CCOc1ccn(-c2ccc(F)cc2)c(=O)c1C(=O)Nc1ccc(Oc2ccnc(N)c2Cl)c(F)c1 [BMS-777607]
- IC50 [3]: 188 nM
- IC50 [4]: 286 nM

SMILES: CCOc1ccn(-c2ccc(F)cc2)c(=O)c1C(=O)Nc1ccc(Oc2ncnc3[nH]ccc23)c(F)c1
- inhibition of growth at 10 µM [1]: > 80%

SMILES: Cc1ccc(NC(=O)C2CCCN(c3ccc(Oc4ccnc(N)c4Cl)c(F)c3)S2(=O)=O)cc1 (stereo not drawn)
- IC50 [9]: Not Active

The remaining lines, values ahead:

- inhibition [5]: 29.7%
SMILES: COc1cc2nccc(Oc3ccc(NC(=O)c4cccn(-c5ccc(F)cc5)c4=O)cc3F)c2cc1OC

- IC50 [6]: 27 nM
SMILES: CCn1cnc(-c2cc3nccc(Oc4ccc(NC(=S)N5CCN(c6ccc(F)cc6)C5=O)cc4F)c3s2)c1

- inhibition [7]: inactive
SMILES: Nc1nccc(Oc2ccc(N3CCCC(C(=O)Nc4ccc(F)cc4)S3(=O)=O)cc2F)c1Cl (stereo not drawn)

- inhibition [7]: inactive
SMILES: Nc1nccc(Oc2ccc(N3CCCC(C(=O)Nc4ccccc4)S3(=O)=O)cc2F)c1Cl (stereo not drawn)
